From PubChem BioAssay AID1259407 (Chemical Carcinogenesis Research Information System (CCRIS), 2018)
Calls of active or inactive are those of the source. How the calls were made is not given here.

Tested on: CCRIS mutagenicity, Ames/micronucleus/aberration tests
Assay: CCRIS mutagenicity studies
[1] = Test System: AMES SALMONELLA TYPHIMURIUM, Strain/Indicator: TA98, Metabolic Activation: HAMSTER, LIVER, S-9, AROCLOR 1254 (10%), Method: PREINCUBATION
[2] = Test System: AMES SALMONELLA TYPHIMURIUM, Strain/Indicator: TA98, Metabolic Activation: HAMSTER, LIVER, S-9, AROCLOR 1254 (30%), Method: PREINCUBATION
[3] = Test System: AMES SALMONELLA TYPHIMURIUM, Strain/Indicator: TA98, Metabolic Activation: NONE, Method: PREINCUBATION
[4] = Test System: AMES SALMONELLA TYPHIMURIUM, Strain/Indicator: TA98, Metabolic Activation: RAT, LIVER, S-9, AROCLOR 1254 (10%), Method: PREINCUBATION
[5] = Test System: AMES SALMONELLA TYPHIMURIUM, Strain/Indicator: TA98, Metabolic Activation: RAT, LIVER, S-9, AROCLOR 1254 (30%), Method: PREINCUBATION
[6] = Test System: AMES SALMONELLA TYPHIMURIUM, Strain/Indicator: TA100, Metabolic Activation: HAMSTER, LIVER, S-9, AROCLOR 1254 (10%), Method: PREINCUBATION
[7] = Test System: AMES SALMONELLA TYPHIMURIUM, Strain/Indicator: TA100, Metabolic Activation: RAT, LIVER, S-9, AROCLOR 1254 (10%), Method: PREINCUBATION
[8] = Test System: AMES SALMONELLA TYPHIMURIUM, Strain/Indicator: TA1535, Metabolic Activation: HAMSTER, LIVER, S-9, AROCLOR 1254 (10%), Method: PREINCUBATION
[9] = Test System: AMES SALMONELLA TYPHIMURIUM, Strain/Indicator: TA1535, Metabolic Activation: NONE, Method: PREINCUBATION
[10] = Test System: AMES SALMONELLA TYPHIMURIUM, Strain/Indicator: TA1535, Metabolic Activation: RAT, LIVER, S-9, AROCLOR 1254 (10%), Method: PREINCUBATION
[11] = Test System: AMES SALMONELLA TYPHIMURIUM, Strain/Indicator: TA100, Metabolic Activation: NONE, Method: PREINCUBATION
[12] = Test System: AMES SALMONELLA TYPHIMURIUM, Strain/Indicator: TA98, Metabolic Activation: NONE, Method: STANDARD PLATE
[13] = Test System: AMES SALMONELLA TYPHIMURIUM, Strain/Indicator: TA100, Metabolic Activation: NONE, Method: STANDARD PLATE

Measured: mutagenic call

CN(C)c1ccc(N(C)C)cc1
active: End Point: IN VITRO CHROMOSOMAL ABERRATIONS, Test System: CHINESE HAMSTER LUNG CELLS (CHL), Metabolic Activation: NONE active; positive (structural changes) | End Point: IN VITRO CHROMOSOMAL ABERRATIONS, Test System: CHINESE HAMSTER LUNG CELLS (CHL), Metabolic Activation: RAT, LIVER, S-9, KC-400 active; positive (structural changes) | End Point: IN VITRO CHROMOSOMAL ABERRATIONS, Test System: CHINESE HAMSTER OVARY CELLS (CHO), Metabolic Activation: NONE active; positive at highest dose | End Point: IN VITRO CHROMOSOMAL ABERRATIONS, Test System: CHINESE HAMSTER OVARY CELLS (CHO), Metabolic Activation: RAT, LIVER, S-9, AROCLOR 1254 active; positive (structural changes) | Test System: AMES SALMONELLA TYPHIMURIUM, Strain/Indicator: TA97, Metabolic Activation: HAMSTER, LIVER, S-9, AROCLOR 1254 (10%), Method: PREINCUBATION active; positive | Test System: AMES SALMONELLA TYPHIMURIUM, Strain/Indicator: TA97, Metabolic Activation: RAT, LIVER, S-9, AROCLOR 1254 (10%), Method: PREINCUBATION active; positive | [2] active; positive | [6] active; positive | Test System: AMES SALMONELLA TYPHIMURIUM, Strain/Indicator: TA100, Metabolic Activation: HAMSTER, LIVER, S-9, AROCLOR 1254 (30%), Method: PREINCUBATION active; positive | [7] active; positive | Test System: AMES SALMONELLA TYPHIMURIUM, Strain/Indicator: TA100, Metabolic Activation: RAT, LIVER, S-9, AROCLOR 1254 (30%), Method: PREINCUBATION active; positive
inactive: Test System: AMES SALMONELLA TYPHIMURIUM, Strain/Indicator: TA97, Metabolic Activation: RAT, LIVER, S-9, AROCLOR 1254 (30%), Method: PREINCUBATION inactive; negative | [1] inactive; negative | [3] inactive; negative | [4] inactive; negative | [5] inactive; negative | [8] inactive; negative | Test System: AMES SALMONELLA TYPHIMURIUM, Strain/Indicator: TA1535, Metabolic Activation: HAMSTER, LIVER, S-9, AROCLOR 1254 (30%), Method: PREINCUBATION inactive; negative | [9] inactive; negative | [10] inactive; negative | Test System: AMES SALMONELLA TYPHIMURIUM, Strain/Indicator: TA1535, Metabolic Activation: RAT, LIVER, S-9, AROCLOR 1254 (30%), Method: PREINCUBATION inactive; negative

C=CC(=O)OCC(CO)(COC(=O)C=C)COC(=O)C=C
inactive: End Point: In vivo micronucleus, Test System: Peripheral blood normochromatic erythrocytes, Species: Mouse, Strain/Sex: B6C3F1/Female inactive; negative | End Point: In vivo micronucleus, Test System: Peripheral blood normochromatic erythrocytes, Species: Mouse, Strain/Sex: B6C3F1/Male, Route: Dermal inactive; negative | End Point: In vivo micronucleus, Test System: Peripheral blood normochromatic erythrocytes, Species: Mouse, Strain/Sex: FVB.N/TgN (v-Ha-ras) Tg.AC hemizygous/Male, Route: Dermal inactive; negative (described as equivocal by ntp) | [1] inactive; negative | [3] inactive; negative | [4] inactive; negative | [6] inactive; negative | [11] inactive; negative | [7] inactive; negative | [8] inactive; negative | [9] inactive; negative | [10] inactive; negative | Test System: AMES SALMONELLA TYPHIMURIUM, Strain/Indicator: TA1537, Metabolic Activation: HAMSTER, LIVER, S-9, AROCLOR 1254 (10%), Method: PREINCUBATION inactive; negative | Test System: AMES SALMONELLA TYPHIMURIUM, Strain/Indicator: TA1537, Metabolic Activation: NONE, Method: PREINCUBATION inactive; negative | Test System: AMES SALMONELLA TYPHIMURIUM, Strain/Indicator: TA1537, Metabolic Activation: RAT, LIVER, S-9, AROCLOR 1254 (10%), Method: PREINCUBATION inactive; negative
active: End Point: In vivo micronucleus, Test System: Peripheral blood normochromatic erythrocytes, Species: Mouse, Strain/Sex: FVB.N/TgN (v-Ha-ras) Tg.AC hemizygous/Female, Route: Dermal active; positive | Test System: MOUSE LYMPHOMA, Strain/Indicator: L5178Y (TK+/TK-), Metabolic Activation: NONE, Method: SUSPENSION/PLATE active; positive

CCC[CH2][Sn]([Cl])([Cl])[Cl]
inactive: Test System: AMES SALMONELLA TYPHIMURIUM, Strain/Indicator: TA98, Metabolic Activation: NONE, Method: SUSPENSION/PLATE inactive; negative | Test System: AMES SALMONELLA TYPHIMURIUM, Strain/Indicator: TA100, Metabolic Activation: NONE, Method: SUSPENSION/PLATE inactive; negative

O=C(O)CNC(=O)c1ccc([N+](=O)[O-])cc1
inactive: [2] inactive; negative | [5] inactive; negative | Test System: AMES SALMONELLA TYPHIMURIUM, Strain/Indicator: TA100, Metabolic Activation: HAMSTER, LIVER, S-9, AROCLOR 1254 (5, 10 OR 30%), Method: PREINCUBATION inactive; negative | Test System: AMES SALMONELLA TYPHIMURIUM, Strain/Indicator: TA100, Metabolic Activation: RAT, LIVER, S-9, AROCLOR 1254 (5, 10 OR 30%), Method: PREINCUBATION inactive; negative | Test System: AMES SALMONELLA TYPHIMURIUM, Strain/Indicator: TA1535, Metabolic Activation: HAMSTER, LIVER, S-9, AROCLOR 1254 (5, 10 OR 30%), Method: PREINCUBATION inactive; negative | [9] inactive; negative | Test System: AMES SALMONELLA TYPHIMURIUM, Strain/Indicator: TA1535, Metabolic Activation: RAT, LIVER, S-9, AROCLOR 1254 (5, 10 OR 30%), Method: PREINCUBATION inactive; negative
active: [3] active; positive | [11] active; positive | Test System: AMES SALMONELLA TYPHIMURIUM, Strain/Indicator: TA1538, Metabolic Activation: NONE, Method: PREINCUBATION active; positive

O=Nc1c(O)ccc2ccccc12
inactive: [3] inactive; negative

CNC(N)=O
inactive: End Point: IN VITRO MICRONUCLEUS, Test System: V79 CELLS, Metabolic Activation: NONE inactive; negative

COc1ccc(/C=C/c2ccc(N)cc2)cc1
active: Test System: AMES SALMONELLA TYPHIMURIUM, Strain/Indicator: TA98, Metabolic Activation: S-9, Method: STANDARD PLATE active; positive | Test System: AMES SALMONELLA TYPHIMURIUM, Strain/Indicator: TA100, Metabolic Activation: S-9, Method: STANDARD PLATE active; positive
inactive: Test System: AMES SALMONELLA TYPHIMURIUM, Strain/Indicator: TA98(1,8-DNP6), Metabolic Activation: NONE, Method: STANDARD PLATE inactive; negative | Test System: AMES SALMONELLA TYPHIMURIUM, Strain/Indicator: TA98(1,8-DNP6), Metabolic Activation: S-9, Method: STANDARD PLATE inactive; negative | [12] inactive; negative | [13] inactive; negative

NC(=O)CCC(=O)Nc1ccc(Cl)c(Cl)c1
inactive: [12] inactive; negative | Test System: AMES SALMONELLA TYPHIMURIUM, Strain/Indicator: TA98, Metabolic Activation: RAT, LIVER, S-9, AROCLOR 1254, Method: STANDARD PLATE inactive; negative | [13] inactive; negative | Test System: AMES SALMONELLA TYPHIMURIUM, Strain/Indicator: TA100, Metabolic Activation: RAT, LIVER, S-9, AROCLOR 1254, Method: STANDARD PLATE inactive; negative
